Results from US5571842A, “Perfluoroalkyl-substituted, benzoylguanidines, a process for their preparation, their use as a medicament or diagnostic agent, and a medicament containing them” (priority 1994, dated 1996).
Each block holds one molecule with its values, some of them ahead of it.

Experiments:
rat hearts = details: isolated rat hearts, cited from earlier work
Na^+ /H^+ exchanger = biological target: T1, Na^+ /H^+ exchanger (Oryctolagus cuniculus, UniProt P23791); experiment: Inhibition of the Na+/H+ exchanger of rabbit erythrocytes (amiloride-sensitive sodium influx, flame photometry); assay type: cell-based, rabbit (White New Zealand); details: 37° C., pH 7.4, hyperosmolar salt-sucrose medium
T1 construct: endogenous in cells; host or cells: rabbit erythrocytes (whole blood of cholesterol-fed White New Zealand rabbits)
Text: White New Zealand rabbits (Ivanovas) received a standard diet containing 2% cholesterol for six weeks, in order to activate Na^+ /H^+ exchange and thus to enable the Na^+ influx into the erythrocytes via […] exchange to be determined by flame photometry. The blood was taken from the auricular arteries and made incoagulable by means of 25 IU of potassium heparin. A portion of each sample was used for duplicate determination of the hematocrit by centrifugation. Aliquots of in each case 100 μl were used to measure the initial Na^+ content of the erythrocytes.
In order to determine the amiloride-sensitive sodium influx, 100 μl of each blood sample were incubated at 37° C. and at pH 7.4 in each case in 5 ml of a hyperosmolar salt-sucrose medium (in mmol/l: 140 NaCl, 3 KCl, 150 sucrose, 0.1 ouabain, 20 trishydroxymethylaminomethane). The erythrocytes were then washed three times with ice-cold MgCl2 -ouabain solution (in mmol/l: 112 MgCl2, 0.1 ouabain) and hemolyzed in 2.0 ml of distilled water. The intracellular sodium content was determined by flame photometry.
The net Na^+ influx was calculated from the difference between the initial sodium values and the sodium content of the erythrocytes after incubation. The amiloride-inhibitable sodium influx was given by the difference of the sodium content of the erythrocytes after incubation with and without 3×10^-4 mol/l of amiloride. […]

cardiac arrhythmias = details: cited from earlier work

T1 sequence (P23791 whole entry): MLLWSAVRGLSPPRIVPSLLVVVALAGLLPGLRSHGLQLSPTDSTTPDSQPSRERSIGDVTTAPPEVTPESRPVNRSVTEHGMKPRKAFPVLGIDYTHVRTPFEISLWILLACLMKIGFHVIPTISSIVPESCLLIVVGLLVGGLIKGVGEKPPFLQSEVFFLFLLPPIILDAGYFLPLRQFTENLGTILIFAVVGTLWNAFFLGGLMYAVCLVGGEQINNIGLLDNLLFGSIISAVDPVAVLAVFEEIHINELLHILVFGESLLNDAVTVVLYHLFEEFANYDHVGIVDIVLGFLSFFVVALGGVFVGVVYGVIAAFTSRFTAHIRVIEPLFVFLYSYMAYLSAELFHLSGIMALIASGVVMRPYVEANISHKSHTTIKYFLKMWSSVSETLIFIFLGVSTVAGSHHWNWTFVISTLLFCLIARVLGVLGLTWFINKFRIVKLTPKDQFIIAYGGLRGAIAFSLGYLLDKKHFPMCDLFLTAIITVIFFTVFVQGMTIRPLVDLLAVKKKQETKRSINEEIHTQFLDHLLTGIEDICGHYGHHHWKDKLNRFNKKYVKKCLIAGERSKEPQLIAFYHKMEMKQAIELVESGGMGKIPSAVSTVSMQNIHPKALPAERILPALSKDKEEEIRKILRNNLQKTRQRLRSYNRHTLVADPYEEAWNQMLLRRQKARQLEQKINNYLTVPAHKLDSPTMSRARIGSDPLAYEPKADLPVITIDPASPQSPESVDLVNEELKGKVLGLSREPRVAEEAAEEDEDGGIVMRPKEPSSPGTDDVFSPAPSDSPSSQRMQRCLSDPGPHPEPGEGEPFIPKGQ

SMILES: CCN(c1nc(N)c(C(=O)N=C(N)N)nc1Cl)C(C)C [ethylisopropylamiloride]
potency relative to amiloride in ventricular fibrillation model (rat hearts; compared with amiloride): even more potent than amiloride

IC50 (Na^+ /H^+ exchanger): 0.07 µM
SMILES: CC(C)c1ccc(C(=O)N=C(N)N)cc1S(=O)(=O)C(F)(F)F [Example 2, 4-Isopropyl-3-trifluoromethylsulfonylbenzoylguanidine]

SMILES: NC(N)=NC(=O)c1nc(Cl)c(N)nc1N [amiloride]
suppression of artificially induced ventricular fibrillation (rat hearts; Eur. Heart J. 9 (suppl.1): 167 (1988)): completely suppressed
antiarrhythmic effect (cardiac arrhythmias; Circulation 79, 1257-63 (1989)): only weakly pronounced
side-effects accompanying antiarrhythmic effect (cardiac arrhythmias; in vivo): hypotensive and saluretic effects

IC50 (Na^+ /H^+ exchanger): 0.2 µM
SMILES: NC(N)=NC(=O)c1ccc(Oc2ccc(F)cc2)c(S(=O)(=O)C(F)(F)F)c1 [Example 1, 4-(4-Fluorophenoxy)-3-trifluoromethylsulfonylbenzoylguanidine]
